Source: patent US20100266674A1, “L-ODDC PRODRUGS FOR CANCER” (UNIVERSITY OF GEORGIA RESEARCH FOUNDATION, INC., priority 2006, published 2010)

What was measured:
[1] = tested on: A549 non-small cell lung cancer cell line; experiment: SRB chemosensitivity (cytotoxicity) assay, A549; format: cell-based; conditions: SRB test, 72 h incubation, mean of 3 experiments
Experimental: (§1) The compounds were evaluated on two non-small cell lung cancer cell lines (A549 and SW1573). These cell lines were characterized for deoxynucleoside analog sensitivity and activity of dCK previously.
(§2) The chemosensitivity assay used in this study was the sulforhodamineB (SRB) assay as described earlier (Keepers et al, Eur J. Cancer, 1991; Rubinstein et al, J. Natl. Cancer Inst., 1990). Cells were transferred to 96 wells plates on day 0; on day 1 a serial dilution of the drug was made from a stock solution and added to the cells in triplicate. After an incubation period of 72 h the cells were fixed for 1 hr at 4° C. with 50% trichloroacetic acid washed, air-dried and stained with 0.4% SRB. The optical density was measured at 492 nm with a microplate reader (Tecan, Salzburg, Austria).
(§3) The results were expressed as percentage of control growth: […]
(§4) The data were plotted in a graph to give a growth inhibition curve. From this growth inhibition curve the […] value was determined by interpolating at the 50% growth level. […] LogP was estimated using ChemDraw 8.0 ultra. IC50s are expressed as mean of 3 experiments.

[2] = tested on: SW1573 non-small cell lung cancer cell line; experiment: SRB chemosensitivity (cytotoxicity) assay, SW1573; format: cell-based; conditions: SRB test, 72 h incubation, mean of 3 experiments
Experimental: as §1, §2, §3, §4

[3] = tested on: Panc-02 pancreatic cancer cell line; experiment: SRB cytotoxicity assay, Panc-02; format: cell-based
Experimental: (§5) Sensitivity to four prodrugs with linear aliphatic chains of different length was determined by the SRB cytotoxicity assay^[12], the IC50 value of the drug was determined in the different cell lines by interpolating the growth inhibition curves. The tests were performed on the BxPC-3 and Panc-02 pancreatic cancer cell lines.

[4] = tested on: BxPC-3 pancreatic cancer cell line; experiment: SRB cytotoxicity assay, BxPC-3; format: cell-based; conditions: BxPC-3 (BxPC3) pancreatic cancer cell line
Experimental: as §5

A549 = experiment: SRB assay with addition of dipyridamole (role of ENT transport), A549; format: cell-based; conditions: A549, dipyridamole added to the cells
From the text: These cell lines were chosen because they had been characterized earlier for sensitivity to gemcitabine and for the activity of the rate-limiting enzyme in the activation of gemcitabine and troxacitabine, deoxycytidine kinase (dCK); […] In addition, non-small cell lung cancer is routinely being treated with gemcitabine containing regimens. […] It should be noted that it is unlikely that they are being phosphorylated as prodrugs due to their steric hindrance. […] In a cell line we tested whether transport (ENT) would play a role by addition of dipyridamole to the cells. In A549 dipyridamole gave a 2-fold increase in the IC50, but this was not observed for the prodrugs. […] It is likely that these cycloalkyl and aromatic moieties at the N4 position of compounds 6l-t may render these compounds poor substrates of intracellular amidases. We therefore speculate that the amidase-catalyzed hydrolysis of the prodrugs may play an important role, allowing the release of troxacitabine into the intracellular compartment for activation (the triphosphate). The better activity profile of prodrugs 6h-k could have been the result of an increased uptake due to the high lipophilicity as well as of a high rate of amidase-catalyzed cleavage of the linear aliphatic derivatives intracellularly.

[5] = cited from earlier work

Row | Structure (SMILES) | IC50 ([1]; Homo sapiens, A549) | IC50 ([2]; Homo sapiens, SW1573) | also measured
1 | CC(=O)Nc1ccn([C@@H]2CO[C@H](CO)O2)c(=O)n1 [Compound 6a, (−)-(2S,4S)-1-[2-(Hydroxymethyl)-1,3-dioxolan-4-yl]-4-N-acetyl-cytosine] | 6.87 µM | 10.7 µM | –
2 | CCCC(=O)Nc1ccn([C@@H]2CO[C@H](CO)O2)c(=O)n1 [Compound 6c, (−)-(2S,4S)-1-[2-(Hydroxymethyl)-1,3-dioxolan-4-yl]-4-N-butirryl-cytosine] | – | – | IC50 [1]: 6.6 µM; IC50 [2]: 8.07 µM
3 | CCCCC(=O)Nc1ccn([C@@H]2CO[C@H](CO)O2)c(=O)n1 [Compound 6e, (−)-(2S,4S)-1-[2-(Hydroxymethyl)-1,3-dioxolan-4-yl]-4-N-valeryl-cytosine] | 5.23 µM | 9.13 µM | –
4 | CCCCCCC(=O)Nc1ccn([C@@H]2CO[C@H](CO)O2)c(=O)n1 [Compound 6g, (−)-(2S,4S)-1-[2-(Hydroxymethyl)-1,3-dioxolan-4-yl]-4-N-heptanoyl-cytosine] | 1.04 µM | 2.4 µM | –
5 | CCCCCCCCC(=O)Nc1ccn([C@@H]2CO[C@H](CO)O2)c(=O)n1 [Compound 6h, (−)-(2S,4S)-1-[2-(Hydroxymethyl)-1,3-dioxolan-4-yl]-4-N-nonanoyl-cytosine] | 0.046 µM | 0.276 µM | –
6 | CCCCCCCCCC(=O)Nc1ccn([C@@H]2CO[C@H](CO)O2)c(=O)n1 [Compound 6i, (−)-(2S,4S)-1-[2-(Hydroxymethyl)-1,3-dioxolan-4-yl]-4-N-decanoyl-cytosine] | 0.024 µM | 0.04 µM | enhancement of sensitivity compared to troxacitabine [3]: 1400 fold; melting point: 141 to 143 °C
7 | CCCCCCCCCCCCNc1ccn([C@@H]2CO[C@H](CO)O2)c(=O)n1 [Compound 6j, (−)-(2S,4S)-1-[2-(Hydroxymethyl)-1,3-dioxolan-4-yl]-4-N-lauryl-cytosine] | 0.015 µM | 0.033 µM | decrease in IC50 / enhancement of sensitivity compared to troxacitabine [4]: 160 fold
8 | CCCCCCCCCCCCCCCC(=O)Nc1ccn([C@@H]2CO[C@H](CO)O2)c(=O)n1 [Compound 6k, (−)-(2S,4S)-1-[2-(Hydroxymethyl)-1,3-dioxolan-4-yl]-4-N-palmitoyl-cytosine] | 0.004 µM | 0.02 µM | –
9 | O=c1nc(NC2CC2)ccn1[C@@H]1CO[C@H](CO)O1 [Compound 6l, (−)-(2SAS)-1-[2-(Hydroxymethyl)-1,3-dioxolan-4-yl]-4-N-cyclopropyl-cytosine] | – | – | IC50 [1]: 18.7 µM; IC50 [2]: 22 µM
10 | O=c1nc(NC2CCCC2)ccn1[C@@H]1CO[C@H](CO)O1 [Compound 6m, (−)-(2S,4S)-1-[2-(Hydroxymethyl)-1,3-dioxolan-4-yl]-4-N-cyclopentyl-cytosine] | 2.97 µM | 8.8 µM | –
11 | O=c1nc(NC2CCCCC2)ccn1[C@@H]1CO[C@H](CO)O1 [Compound 6n, (−)-(2S,4S)-1-[2-(Hydroxymethyl)-1,3-dioxolan-4-yl]-4-N-cyclohexyl-cytosine] | 7.37 µM | 14 µM | –
12 | O=C(Nc1ccn([C@@H]2CO[C@H](CO)O2)c(=O)n1)c1ccccc1 [Compound 6o, (−)-(2S,4S)-1-[2-(Hydroxymethyl)-1,3-dioxolan-4-yl]-4-N-benzoyl-cytosine] | 8.53 µM | 13.7 µM | –
13 | O=C(Nc1ccn([C@@H]2CO[C@H](CO)O2)c(=O)n1)c1ccc(F)cc1 [Compound 6p, (−)-(2S,4S)-1-[2-(Hydroxymethyl)-1,3-dioxolan-4-yl]-4-N-(p-fluorobenzoyl)-cytosine] | 8.67 µM | 15.3 µM | –
14 | O=C(Nc1ccn([C@@H]2CO[C@H](CO)O2)c(=O)n1)c1ccc(Cl)cc1 [Compound 6q, (−)-(2S,4S)-1-[2-(Hydroxymethyl)-1,3-dioxolan-4-yl]-4-N-(p-chlorobenzoyl)-cytosine] | 0.41 µM | 2.77 µM | –
15 | O=C(Nc1ccn([C@@H]2CO[C@H](CO)O2)c(=O)n1)c1ccc(Br)cc1 [Compound 6r, (−)-(2S,4S)-1-[2-(Hydroxymethyl)-1,3-dioxolan-4-yl]-4-N-(p-bromobenzoyl)-cytosine] | 4.53 µM | 8.87 µM | –
16 | COc1ccc(C(=O)Nc2ccn([C@@H]3CO[C@H](CO)O3)c(=O)n2)cc1 [Compound 6s, (−)-(2S,4S)-1-[2-(Hydroxymethyl)-1,3-dioxolan-4-yl]-4-N-(p-methoxybenzoyl)-cytosine] | 3.5 µM | 10 µM | –
17 | O=C(Nc1ccn([C@@H]2CO[C@H](CO)O2)c(=O)n1)c1ccc(Cl)cc1Cl [Compound 6t, (−)-(2S,4S)-1-[2-(Hydroxymethyl)-1,3-dioxolan-4-yl]-4-N-(2,4-dichlorobenzoyl)-cytosine] | 9.83 µM | 14.3 µM | melting point: 185 to 187 °C
18 | Nc1ccn([C@@H]2O[C@H](CO)[C@@H](O)[C@@H]2O)c(=O)n1 [Cytarabine, reference compound] | 0.62 µM | 10.5 µM | –
19 | Nc1ccn([C@@H]2O[C@H](CO)[C@@H](O)C2(F)F)c(=O)n1 [Gemcitabine, reference compound] | 0.013 µM | 0.008 µM | –
20 | Nc1ccn([C@@H]2CO[C@H](CO)O2)c(=O)n1 [Troxacitabine, (−)-2′-deoxy-3′-oxacytidine, reference compound] | 0.68 µM | 2.3 µM | increase in the IC50 by dipyridamole (A549): 2 fold; plasma half-life [5]: 82 h
